In patent US20260262643A1, “HERBICIDAL BENZOXAZINES” (FMC CORPORATION, priority 2022, published 2026):

Key:
[1] = system: oat, wild; assay: Test C postemergence; format: in vivo, Avena fatua; conditions: 10 days
Excerpt: (§1) Seeds of plant species selected from barnyardgrass (Echinochloa crusgalli), blackgrass (Alopecurus myosuroides), corn (Zea mays), foxtail, giant (giant foxtail, Setaria faberi), green foxtail (Setaria viridis), goosegrass (Eleusine indica), kochia (Bassia scoparia), oat, wild (wild oat, Avena fatua), pigweed, palmer (palmer amaranth, palmer pigweed, Amaranthus palmeri), Pigweed, Redroot (redroot pigweed, Amaranthus retroflexus), ragweed (common ragweed, Ambrosia artemisiifolia), ryegrass, Italian ([…] ryegrass, Lolium multiflorum), soybean (Glycine max), and wheat (Triticum aestivum) were planted into a blend of loam soil and sand and treated preemergence with a directed soil spray using test chemicals formulated in a non-phytotoxic solvent mixture which included a surfactant. At the same time, plants selected from these crops and weed species and also galium (catchweed bedstraw, Galium aparine) and horseweed (Erigeron canadensis) were planted in pots containing the same blend of loam soil and sand and treated with postemergence applications of test chemicals formulated in the same manner. Plants ranged in height from 2 to 10 cm and were in the one- to two-leaf stage for the postemergence treatment. Treated plants and untreated controls were maintained in a greenhouse for 10 days, after which time all treated plants were compared to untreated controls and visually evaluated for injury. Plant response ratings, summarized in Table C, are based on a 0 to 100 scale where 0 is no effect and 100 is complete control. A dash (-) response means no test result.

[2] = system: corn; assay: Test C postemergence; format: in vivo, Zea mays; conditions: 10 days
Procedure, shortened: (§2)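 Seeds sown in loam soil–sand blend received a directed preemergence soil spray of test chemical in non-phytotoxic solvent with surfactant; postemergence plants (2–10 cm, one- to two-leaf stage) were sprayed with the same formulation. Greenhouse-held 10 days, then visually rated for injury versus untreated controls, 0 (no effect) to 100 (complete control).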

[3] = system: barnyardgrass; assay: Test C postemergence; format: in vivo, Echinochloa crusgalli; conditions: 10 days
Procedure, shortened: as §2

[4] = system: wheat; assay: Test C preemergence; format: in vivo, Triticum aestivum; conditions: for Wheat plant response rating: preemergence, 0 to 100 scale (0 no effect, 100 complete control)
Excerpt: as §1

[5] = system: pigweed, palmer; assay: Test C preemergence; format: in vivo, Amaranthus palmeri; conditions: for Pigweed, Palmer plant response rating: preemergence, 0 to 100 scale (0 no effect, 100 complete control)
Procedure, shortened: as §2

[6] = system: pigweed, palmer; assay: Test C postemergence; format: in vivo, Amaranthus palmeri; conditions: 10 days
Procedure, shortened: as §2

[7] = system: soybean; assay: Test C preemergence; format: in vivo, Glycine max; conditions: for Soybean plant response rating: preemergence, 0 to 100 scale (0 no effect, 100 complete control)
Excerpt: as §1

[8] = system: corn; assay: Test C preemergence; format: in vivo, Zea mays; conditions: for Corn plant response rating: preemergence, 0 to 100 scale (0 no effect, 100 complete control)
Procedure, shortened: as §2

[9] = system: horseweed; assay: Test C postemergence; format: in vivo, Erigeron canadensis; conditions: 10 days
Procedure, shortened: as §2

[10] = system: ryegrass, Italian; assay: Test C preemergence; format: in vivo, Lolium multiflorum; conditions: for Ryegrass, Italian plant response rating: preemergence, 0 to 100 scale (0 no effect, 100 complete control)
Procedure, shortened: as §2

[11] = system: wheat; assay: Test C postemergence; format: in vivo, Triticum aestivum; conditions: 10 days
Excerpt: as §1

[12] = system: soybean; assay: Test C postemergence; format: in vivo, Glycine max; conditions: 10 days
Excerpt: as §1

[13] = system: kochia; assay: Test C postemergence; format: in vivo, Bassia scoparia; conditions: 10 days
Procedure, shortened: as §2

[14] = system: blackgrass; assay: Test C preemergence; format: in vivo, Alopecurus myosuroides; conditions: for Blackgrass plant response rating: preemergence, 0 to 100 scale (0 no effect, 100 complete control)
Procedure, shortened: as §2

[15] = system: ryegrass, Italian; assay: Test C postemergence; format: in vivo, Lolium multiflorum; conditions: 10 days
Procedure, shortened: as §2

[16] = system: green foxtail; assay: Test C postemergence; format: in vivo, Setaria viridis; conditions: 10 days
Procedure, shortened: as §2

[17] = system: green foxtail; assay: Test C preemergence; format: in vivo, Setaria viridis; conditions: for Foxtail, Green plant response rating: preemergence, 0 to 100 scale (0 no effect, 100 complete control)
Procedure, shortened: as §2

[18] = system: galium; assay: Test C postemergence; format: in vivo, Galium aparine; conditions: 10 days
Procedure, shortened: as §2

[19] = system: barnyardgrass; assay: Test C preemergence; format: in vivo, Echinochloa crusgalli; conditions: for Barnyardgrass plant response rating: preemergence, 0 to 100 scale (0 no effect, 100 complete control)
Procedure, shortened: as §2

[20] = system: ragweed; assay: Test C postemergence; format: in vivo, Ambrosia artemisiifolia; conditions: 10 days
Procedure, shortened: as §2

[21] = system: blackgrass; assay: Test C postemergence; format: in vivo, Alopecurus myosuroides; conditions: 10 days
Procedure, shortened: as §2

[22] = system: ragweed; assay: Test C preemergence; format: in vivo, Ambrosia artemisiifolia; conditions: for Ragweed plant response rating: preemergence, 0 to 100 scale (0 no effect, 100 complete control)
Procedure, shortened: as §2

[23] = system: oat, wild; assay: Test C preemergence; format: in vivo, Avena fatua; conditions: for Oat, Wild plant response rating: preemergence, 0 to 100 scale (0 no effect, 100 complete control)
Excerpt: as §1

[24] = system: kochia; assay: Test C preemergence; format: in vivo, Bassia scoparia; conditions: for Kochia plant response rating: preemergence, 0 to 100 scale (0 no effect, 100 complete control)
Procedure, shortened: as §2

[25] = 500 g ai/ha, postemergence, 0 to 100 scale (0 no effect, 100 complete control)
[26] = Postemergence, 125 g ai/ha, 0 to 100 scale (0 no effect, 100 complete control)
[27] = Preemergence, 125 g ai/ha, 0 to 100 scale, 0 no effect, 100 complete control
[28] = 125 g ai/ha, postemergence, 0 to 100 scale, 0 no effect, 100 complete control

CC(C)c1ncn(-c2ccc(OS(=O)(=O)C(F)(F)F)c(C(=O)N3C[C@H](C)Oc4c(Cl)cccc43)c2)n1 [Compound 339]
Plant response rating, Oat, Wild [1, 25]: 0
Plant response rating, Oat, Wild [1, 26]: 0
Plant response rating, Corn [2, 25]: 0
Plant response rating, Corn [2, 26]: 0
Plant response rating, Barnyardgrass [3, 25]: 10
Plant response rating, Barnyardgrass [3, 26]: 10
Wheat plant response rating ([4]; 500 g ai/ha): 0
Plant response rating, Wheat [4, 27]: 0
Pigweed, Palmer plant response rating ([5]; 500 g ai/ha): 0
Plant response rating, Pigweed, Palmer [5, 27]: 0
Plant response rating, Pigweed, Palmer [6, 25]: 70
Plant response rating, Pigweed, Palmer [6, 26]: 50
Soybean plant response rating ([7]; 500 g ai/ha): 0
Plant response rating, Soybean [7, 27]: 0
Corn plant response rating ([8]; 500 g ai/ha): 0
Plant response rating, Corn [8, 27]: 0
Plant response rating, Horseweed [9, 25]: 10
Plant response rating, Horseweed [9, 26]: 0
Ryegrass, Italian plant response rating ([10]; 500 g ai/ha): 80
Plant response rating, Ryegrass, Italian [10, 27]: 20
Plant response rating, Wheat [11, 25]: 0
Plant response rating, Wheat [11, 26]: 0
Plant response rating, Soybean [12, 25]: 20
Plant response rating, Kochia [13, 25]: 60
Plant response rating, Kochia [13, 26]: 30
Blackgrass plant response rating ([14]; 500 g ai/ha): 0
Plant response rating, Blackgrass [14, 27]: 0
Plant response rating, Ryegrass, Italian [15, 25]: 20
Plant response rating, Ryegrass, Italian [15, 26]: 0
Plant response rating, Foxtail, Green [16, 25]: 10
Plant response rating, Foxtail, Green [16, 26]: 0
Foxtail, Green plant response rating ([17]; 500 g ai/ha): 0
Plant response rating, Foxtail, Green [17, 27]: 0
Plant response rating, Galium [18, 25]: 50
Plant response rating, Galium [18, 26]: 60
Barnyardgrass plant response rating ([19]; 500 g ai/ha): 0
Plant response rating, Barnyardgrass [19, 27]: 0
Plant response rating, Ragweed [20, 25]: 10
Plant response rating, Ragweed [20, 26]: 0
Plant response rating, Blackgrass [21, 25]: 0
Plant response rating, Blackgrass [21, 26]: 0
Ragweed plant response rating ([22]; 500 g ai/ha): 0
Plant response rating, Ragweed [22, 27]: 0
Oat, Wild plant response rating ([23]; 500 g ai/ha): 0
Plant response rating, Oat, Wild [23, 27]: 0
Kochia plant response rating ([24]; 500 g ai/ha): 50
Plant response rating, Kochia [24, 27]: 0

CC(C)c1ncn(-c2cc(C(=O)N3C[C@H](C)Oc4c(Cl)cccc43)cnn2)n1 [Compound 305]
Plant response rating, Oat, Wild [1, 25]: 60
Plant response rating, Oat, Wild [1, 26]: 30
Plant response rating, Corn [2, 25]: 90
Plant response rating, Corn [2, 26]: 10
Plant response rating, Barnyardgrass [3, 25]: 90
Plant response rating, Barnyardgrass [3, 26]: 30
Wheat plant response rating ([4]; 500 g ai/ha): 70
Wheat plant response rating ([4]; Test C, 125 g ai/ha): 0
Pigweed, Palmer plant response rating ([5]; 500 g ai/ha): 100
Pigweed, Palmer plant response rating ([5]; Test C, 125 g ai/ha): 80
Plant response rating, Pigweed, Palmer [6, 25]: 80
Plant response rating, Pigweed, Palmer [6, 26]: 30
Soybean plant response rating ([7]; 500 g ai/ha): 90
Soybean plant response rating ([7]; Test C, 125 g ai/ha): 0
Corn plant response rating ([8]; 500 g ai/ha): 30
Corn plant response rating ([8]; Test C, 125 g ai/ha): 0
Plant response rating, Horseweed [9, 25]: 100
Plant response rating, Horseweed [9, 26]: 30
Ryegrass, Italian plant response rating ([10]; 500 g ai/ha): 90
Ryegrass, Italian plant response rating ([10]; Test C, 125 g ai/ha): 60
Plant response rating, Wheat [11, 25]: 90
Plant response rating, Wheat [11, 26]: 40
Plant response rating, Soybean [12, 25]: 100
Plant response rating, Soybean [12, 26]: 100
Plant response rating, Kochia [13, 25]: 80
Plant response rating, Kochia [13, 26]: 50
Blackgrass plant response rating ([14]; 500 g ai/ha): 90
Blackgrass plant response rating ([14]; Test C, 125 g ai/ha): 50
Plant response rating, Ryegrass, Italian [15, 25]: 60
Plant response rating, Ryegrass, Italian [15, 26]: 30
Plant response rating, Foxtail, Green [16, 25]: 90
Plant response rating, Foxtail, Green [16, 26]: 50
Foxtail, Green plant response rating ([17]; 500 g ai/ha): 100
Foxtail, Green plant response rating ([17]; Test C, 125 g ai/ha): 100
Plant response rating, Galium [18, 25]: 100
Plant response rating, Galium [18, 26]: 100
Barnyardgrass plant response rating ([19]; 500 g ai/ha): 100
Barnyardgrass plant response rating ([19]; Test C, 125 g ai/ha): 70
Plant response rating, Ragweed [20, 25]: 80
Plant response rating, Ragweed [20, 26]: 70
Plant response rating, Blackgrass [21, 25]: 90
Plant response rating, Blackgrass [21, 26]: 40
Ragweed plant response rating ([22]; 500 g ai/ha): 90
Ragweed plant response rating ([22]; Test C, 125 g ai/ha): 70
Oat, Wild plant response rating ([23]; 500 g ai/ha): 80
Oat, Wild plant response rating ([23]; Test C, 125 g ai/ha): 20
Kochia plant response rating ([24]; 500 g ai/ha): 100
Kochia plant response rating ([24]; Test C, 125 g ai/ha): 80

COC(=O)N(C)c1ncn(-c2cccc(C(=O)N3C[C@H](C)Oc4c(C)cccc43)c2)n1 [30 0]
Plant response rating, Oat, Wild [1, 28]: 0
Plant response rating, Oat, Wild [1, 25]: 40
Plant response rating, Corn [2, 28]: 0
Plant response rating, Corn [2, 25]: 70
Plant response rating, Barnyardgrass [3, 28]: 10
Plant response rating, Barnyardgrass [3, 25]: 50
Wheat plant response rating ([4]; 500 g ai/ha): 20
Wheat plant response rating ([4]; Test C, 125 g ai/ha): 0
Pigweed, Palmer plant response rating ([5]; 500 g ai/ha): 80
Pigweed, Palmer plant response rating ([5]; Test C, 125 g ai/ha): 20
Plant response rating, Pigweed, Palmer [6, 28]: 30
Plant response rating, Pigweed, Palmer [6, 25]: 40
Soybean plant response rating ([7]; 500 g ai/ha): 20
Soybean plant response rating ([7]; Test C, 125 g ai/ha): 0
Corn plant response rating ([8]; 500 g ai/ha): 10
Corn plant response rating ([8]; Test C, 125 g ai/ha): 0
Plant response rating, Horseweed [9, 28]: 30
Plant response rating, Horseweed [9, 25]: 30
Ryegrass, Italian plant response rating ([10]; 500 g ai/ha): 80
Ryegrass, Italian plant response rating ([10]; Test C, 125 g ai/ha): 60
Plant response rating, Wheat [11, 28]: 10
Plant response rating, Wheat [11, 25]: 30
Plant response rating, Soybean [12, 28]: 70
Plant response rating, Soybean [12, 25]: 100
Plant response rating, Kochia [13, 28]: 50
Plant response rating, Kochia [13, 25]: 60
Blackgrass plant response rating ([14]; 500 g ai/ha): 20
Blackgrass plant response rating ([14]; Test C, 125 g ai/ha): 0
Plant response rating, Ryegrass, Italian [15, 28]: 10
Plant response rating, Ryegrass, Italian [15, 25]: 80
Plant response rating, Foxtail, Green [16, 28]: 10
Plant response rating, Foxtail, Green [16, 25]: 50
Foxtail, Green plant response rating ([17]; 500 g ai/ha): 100
Foxtail, Green plant response rating ([17]; Test C, 125 g ai/ha): 80
Plant response rating, Galium [18, 28]: 60
Plant response rating, Galium [18, 25]: 90
Barnyardgrass plant response rating ([19]; 500 g ai/ha): 50
Barnyardgrass plant response rating ([19]; Test C, 125 g ai/ha): 0
Plant response rating, Ragweed [20, 28]: 0
Plant response rating, Ragweed [20, 25]: 50
Plant response rating, Blackgrass [21, 28]: 0
Plant response rating, Blackgrass [21, 25]: 80
Ragweed plant response rating ([22]; 500 g ai/ha): 20
Ragweed plant response rating ([22]; Test C, 125 g ai/ha): 0
Oat, Wild plant response rating ([23]; 500 g ai/ha): 30
Oat, Wild plant response rating ([23]; Test C, 125 g ai/ha): 20
Kochia plant response rating ([24]; 500 g ai/ha): 70
Kochia plant response rating ([24]; Test C, 125 g ai/ha): 50
